Reference: patent US11584714B2 (priority 2018, dated 2023)
Structures can show the parent of a compound that is named as a salt. Where two headings read alike, the source gives them in different places.

Assays:
Type in all cases: biochemical
[1] = target: MASP-2 (CCP1-CCP2-SP) (Homo sapiens (Human), UniProt O00187); test: biochemical; conditions: for Ki: read-out: MASP-2 Ki
[2] = target: mMASP-2 (Mus musculus (Mouse), UniProt Q91WP0); test: Enzymatic inhibition of mMASP-2
[3] = target: human α-thrombin (Homo sapiens (Human), UniProt P00734); test: Enzymatic assay for thrombin (Boc-VPR-AMC substrate)
[4] = system: Lectin Pathway; test: Lectin pathway activation assay in human serum (mannan-coated ELISA, C3c detection); conditions: 1% human serum
[5] = MASP-2 inhibition versus thrombin
[6] = selectivity for MASP-2 inhibition versus thrombin

Chain of MASP-2 (CCP1-CCP2-SP) (O00187 445-686): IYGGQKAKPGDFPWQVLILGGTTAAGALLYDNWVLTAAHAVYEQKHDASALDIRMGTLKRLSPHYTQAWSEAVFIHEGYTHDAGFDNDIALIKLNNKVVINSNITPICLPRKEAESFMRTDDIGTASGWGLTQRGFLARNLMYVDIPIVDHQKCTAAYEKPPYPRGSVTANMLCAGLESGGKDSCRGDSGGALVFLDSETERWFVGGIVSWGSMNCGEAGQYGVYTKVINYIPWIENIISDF
Chain of mMASP-2 (Q91WP0 20-685): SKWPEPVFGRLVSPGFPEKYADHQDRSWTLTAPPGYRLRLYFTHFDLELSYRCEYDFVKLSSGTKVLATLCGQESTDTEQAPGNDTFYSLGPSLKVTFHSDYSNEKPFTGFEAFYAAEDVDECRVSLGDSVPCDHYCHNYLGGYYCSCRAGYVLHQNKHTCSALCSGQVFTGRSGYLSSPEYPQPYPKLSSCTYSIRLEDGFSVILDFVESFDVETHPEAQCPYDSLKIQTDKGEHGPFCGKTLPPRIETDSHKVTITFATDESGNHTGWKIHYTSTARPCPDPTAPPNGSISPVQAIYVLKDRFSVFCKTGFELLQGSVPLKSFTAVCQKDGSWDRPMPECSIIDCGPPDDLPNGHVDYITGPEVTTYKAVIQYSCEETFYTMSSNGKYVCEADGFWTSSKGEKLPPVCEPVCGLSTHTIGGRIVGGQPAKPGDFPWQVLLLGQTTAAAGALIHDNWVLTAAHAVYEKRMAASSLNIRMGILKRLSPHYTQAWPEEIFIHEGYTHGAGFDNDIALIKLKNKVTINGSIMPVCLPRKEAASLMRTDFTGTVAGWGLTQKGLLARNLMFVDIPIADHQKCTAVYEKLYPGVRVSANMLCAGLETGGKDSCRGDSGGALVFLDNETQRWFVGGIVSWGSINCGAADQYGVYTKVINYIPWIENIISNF

| SMILES | MASP-2 vs. thrombin selectivity [1, 5] | Ki [1] | Ki ([2]; read-out: mMASP-2 Ki) | Ki ([3]; read-out: Thrombin Ki) | IC50 [4] | MASP-2 vs. thrombin selectivity [1, 6] | Ki ([3]; Thrombin Ki (μM)) | Ki [2] |
| --- | --- | --- | --- | --- | --- | --- | --- | --- |
| C[C@H](NC(=O)[C@H](N)CCc1ccccc1)C(=O)NCc1ccc2nc(N)[nH]c2c1 (single isomer, unassigned) [compound 1040, Di-trifluoroacetate salt] | **** (>100-fold) | < 500 nM | < 500 nM | > 25 µM | 500 to 5000 nM |  |  |  |
| Cc1nc(N)ccc1CNC(=O)C(C)NC(=O)[C@H]1C[C@H](c2cccc(-c3ccccc3)c2)CN1 (stereo in doubt) [compound 1360, (2R,4R)-4-([1,1′-Biphenyl]-3-yl)-N—((R)-1-(((6-amino-2-methylpyridin-3-yl)methyl)amino)-1-oxopropan-2-yl)pyrrolidine-2-carboxamide Di-trifluoroacetate salt] |  |  | < 500 nM | > 25 µM | 50 to 500 nM |  |  |  |
| C[C@H](NC(=O)[C@H](N)CCc1ccccc1)C(=O)NCCc1ccc(N)nc1 [compound 1015, (R)-2-Amino-N—((S)-1-((2-(6-aminopyridin-3-yl)ethyl)amino)-1-oxopropan-2-yl)-4-phenylbutanamide Dihydrochloride] |  |  | < 25000 nM | > 25 µM | 5000 to 50000 nM |  |  |  |
| C[C@H](NC(=O)[C@H](N)CCc1ccccc1)C(=O)NCCc1ccnc(N)c1 [compound 1016, (R)-2-Amino-N—((S)-1-((2-(2-aminopyridin-4-yl)ethyl)amino)-1-oxopropan-2-yl)-4-phenylbutanamide Dihydrochloride] |  |  | < 25000 nM | > 25 µM | 5000 to 50000 nM |  |  |  |
| C[C@H](NC(=O)[C@H](N)CCc1ccccc1)C(=O)NCc1ccc2c(N)ncnc2c1 [compound 1060, (R)-2-Amino-N—((S)-1-(((4-aminoquinazolin-7-yl)methyl)amino)-1-oxopropan-2-yl)-4-phenylbutanamide Dihydrochloride] | *** (25 to 100-fold) |  | > 25000 nM | > 25 µM | > 50000 nM |  |  |  |
| C[C@H](NC(=O)[C@H](N)C1Cc2ccccc2C1)C(=O)NCc1ccc2c(N)nccc2c1 [compound 1088, (S)-2-((R)-2-Amino-2-(2,3-dihydro-1H-inden-2-yl)acetamido)-N-((1-aminoisoquinolin-6-yl)methyl)propanamide Dihydrochloride] |  | < 500 nM | < 500 nM |  | 50 to 500 nM |  |  |  |
| C[C@H](NC(=O)[C@H](N)C1Cc2ccccc2C1)C(=O)NCc1ccc2nc(N)ccc2c1 [compound 1091] |  |  | < 500 nM | > 25 µM | 5000 to 50000 nM |  |  |  |
| Cc1c(Cl)cccc1CC[C@@H](N)C(=O)N[C@@H](C)C(=O)NCc1ccc(C(=N)N)cc1 [compound 1103] | ** (5.0 to 25-fold) | < 500 nM | < 500 nM | < 0.5 µM | 50 to 500 nM |  |  |  |
| C[C@@H](C(=O)NCc1ccc2c(N)nccc2c1)N(C)C(=O)[C@H](N)CCc1cccc(C(F)(F)F)c1 [compound 1139, (R)-2-Amino-N—((S)-1-(((1-aminoisoquinolin-6-yl)methyl)amino)-1-oxopropan-2-yl)-N-methyl-4-(3-(trifluoromethyl)phenyl)butanamide Dihydrochloride] |  | < 500 nM | < 10000 nM |  | 5000 to 50000 nM |  |  |  |
| Cc1[nH]c(C(=O)N[C@@H](C)C(=O)NCc2ccc(C(=N)N)cc2)cc1-c1ccccc1 [compound 1239, (S)—N-(1-((4-Carbamimidoylbenzyl)amino)-1-oxopropan-2-yl)-5-methyl-4-phenyl-1H-pyrrole-2-carboxamide] |  | < 500 nM | < 500 nM |  | 500 to 5000 nM | ** (≥5.0 to <25-fold) | 2.5 to 10 µM |  |
| Cc1nc(N)ccc1CNC(=O)[C@H](C)NC(=O)[C@H]1C[C@@H](c2ccccc2)CCN1 [compound 1253, (2R,4S)—N—((S)-1-(((6-Amino-2-methylpyridin-3-yl)methyl)amino)-1-oxopropan-2-yl)-4-phenylpiperidine-2-carboxamide] |  | < 500 nM |  | > 25 µM | 50 to 500 nM |  |  | 500 to 2500 nM |
| Cc1nc(N)ccc1CNC(=O)[C@H](C)NC(=O)[C@H]1C[C@H](Cc2cccc3ccccc23)CN1 [compound 1324, (2R,4S)—N—((S)-1-(((6-Amino-2-methylpyridin-3-yl)methyl)amino)-1-oxopropan-2-yl)-4-(naphthalen-1-ylmethyl)pyrrolidine-2-carboxamide Di-trifluoroacetate salt] |  | < 500 nM | < 500 nM |  | 50 to 500 nM | *** (≥25 to <100-fold) | 0.5 to 2.5 µM |  |
| Cc1nc(N)ccc1CNC(=O)[C@H](C)NC(=O)[C@H]1C[C@H](Cc2cccc(Cl)c2)CN1 [compound 1328, (2R,4S)—N—((S)-1-(((6-amino-2-methylpyridin-3-yl)methyl)amino)-1-oxopropan-2-yl)-4-(3-chlorobenzyl)pyrrolidine-2-carboxamide Dihydrochloride] |  | < 500 nM | < 500 nM |  | 50 to 500 nM | **** (≥100-fold) | 0.5 to 2.5 µM |  |
| Cc1cc(C)cc(C[C@@H]2CN[C@@H](C(=O)N[C@@H](C)C(=O)NCc3ccc(N)nc3C)C2)c1 [compound 1331, (2R,4S)—N—((S)-1-(((6-amino-2-methylpyridin-3-yl)methyl)amino)-1-oxopropan-2-yl)-4-(3,5-dimethylbenzyl)pyrrolidine-2-carboxamide Dihydrochloride] |  | < 500 nM | < 500 nM | > 25 µM | 50 to 500 nM | **** (≥100-fold) |  |  |
| Cc1cccc(C[C@@H]2CN[C@@H](C(=O)N[C@@H](C)C(=O)NCc3ccc(N)nc3C)C2)c1 [compound 1337, (2R,4S)—N—((S)-1-(((6-amino-2-methylpyridin-3-yl)methyl)amino)-1-oxopropan-2-yl)-4-(3-methylbenzyl)pyrrolidine-2-carboxamide dihydrochloride] |  | < 500 nM | < 500 nM |  | 500 to 5000 nM | **** (≥100-fold) | 0.5 to 2.5 µM |  |
| Cc1nc(N)ccc1CNC(=O)[C@H](C)NC(=O)C1=CC(c2ccccc2)C2=C(CC(C)(C)CC2=O)N1 (stereo partly drawn) [compound 1388, N-((S)-1-(((6-Amino-2-methylpyridin-3-yl)methyl)amino)-1-oxopropan-2-yl)-7,7-dimethyl-5-oxo-4-phenyl-1,4,5,6,7,8-hexahydroquinoline-2-carboxamide] |  |  | < 500 nM | > 25 µM | < 50 nM |  |  |  |
| Cc1nc(N)ccc1CNC(=O)[C@H](C)NC(=O)[C@H]1C[C@H](Cc2ccc(-c3ccc(F)cc3C#N)cc2)CN1 [compound 1396, (2R,4S)—N—((S)-1-(((6-Amino-2-methylpyridin-3-yl)methyl)amino)-1-oxopropan-2-yl)-4-((2′-cyano-4′-fluoro-[1,1′-biphenyl]-4-yl)methyl)pyrrolidine-2-carboxamide] |  |  | < 500 nM | > 25 µM | 500 to 5000 nM |  |  |  |
| C[C@H](NC(=O)[C@H]1C[C@H](Cc2ccccc2)CN1)C(=O)NCc1cnc2c(c1)c(Cl)cn2C [compound 1450, (2R,4S)-4-Benzyl-N-((S)-1-(((3-chloro-1-methyl-1H-pyrrolo[2,3-b]pyridin-5-yl)methyl)amino)-1-oxopropan-2-yl)pyrrolidine-2-carboxamide Dihydrochloride] |  | < 500 nM | < 500 nM |  | 50 to 500 nM | **** (≥100-fold) |  |  |
